According to US10080751B2, “Systems and methods for treating bacterial infection” (priority 2016, dated 2018):
Converted amounts (≈) assume the structure as drawn. Where two headings read alike, the source gives them in different places.

What was measured:
[1] = tested on: E. coli; test: MIC with/without bovine pulmonary surfactant, E. coli; assay type: cell-based, Escherichia coli; settings: E. coli ATCC 25922
Description: (§1) Clinical isolates were identified by the submitting laboratories and confirmed by JMI Laboratories using standard bacteriologic algorithms and methodologies, including Matrix-Assisted Laser Desorption Ionization-Time Of Flight Mass Spectrometry (MALDI-TOF MS). When necessary, MALDI-TOF MS was performed using the Bruker Daltonics MALDI Biotyper (Billerica, Mass., USA), following manufacturer's instructions. Isolates selected were bacterial species commonly associated with pneumonia. […] 2.2 Susceptibility testing
(§2) Antibacterial susceptibility testing was measured by JMI Labs (North Liberty, Iowa, USA). […] These clinical isolates were collected from US (n=4), Mexico (n=2), and Italy (n=1). Susceptibility testing was performed by broth microdilution in accordance with the Clinical and Laboratory and Standards Institute (CLSI) guidelines M07-A10 (2015) and the standard operating procedures at JMI laboratories. Minimum inhibitory concentrations (MICs) were based on CLSI criteria (2015). There are no published breakpoints for iclaprim. E. coli, K. pneumoniae, M. catarrhalis, E. faecalis, and S. aureus were tested in cation-adjusted Mueller-Hinton broth (CA-MHB). S. pneumoniae were tested in CA-MHB supplemented with 2.5-5% lysed horse blood, and H. influenza were tested in Haemophilus test medium. Quality control and interpretation of results were performed in accordance with CLSI M100-S26 (2016) methods. QC ranges for iclaprim were those approved by CLSI and published in M100-S26 (2016). Iclaprim and comparator antibiotic MIC results were within the CLSI published ranges against E. coli ATCC 25922, E. faecalis ATCC 29212, E. faecalis ATCC 33186, H. influenzae ATCC 49247, K. pneumoniae ATCC 700603 (ESBL phenotype), S. aureus ATCC 29213, and S. pneumoniae ATCC 49619. Isolates were tested with MIC panels (ThermoFisher Scientific, Cleveland, Ohio, USA) of comparator antibiotics (daptomycin and levofloxacin).
(§3) Because bovine pulmonary surfactant can introduce cloudiness to the MIC testing media, antimicrobial growth inhibition was also evaluated using the colorimetric metabolic indicator resazurin (Camlab Ltd., Cambridge, UK). […] S. pneumoniae panels were omitted from resazurin analysis because the color change was obscured by the lysed horse blood present in the test medium. Growth inhibition was then evaluated as a visible color change from blue (no growth) to pink (robust growth) and recorded as a MICRZ value.
(§4) The MICs of iclaprim, levofloxacin, and daptomycin were determined against Gram-positive and Gram-negative isolates.
A new vial of bovine pulmonary surfactant (BPS; Survanta®; Abbott Laboratories, Columbus, Ohio) was utilized for each independent experiment. […] MICs of daptomycin were determined in CAMHB with the Ca^2+ content adjusted to 50 mg/L.

[2] = tested on: H. influenzae; test: MIC with/without bovine pulmonary surfactant, H. influenzae; assay type: cell-based, Haemophilus influenzae; settings: for MIC: Haemophilus influenzae
Description: as §1, §2, §3, §4
A new vial of bovine pulmonary surfactant (BPS; Survanta®; Abbott Laboratories, Columbus, Ohio) was utilized for each independent experiment. Each vial was mixed thoroughly and a 100 μL aliquot was spread on an agar plate, which was incubated overnight to confirm sterility. […] The concentration of surfactant was expressed in terms of percent volume of Survanta® suspension, which consisted of phospholipid (25 mg/mL) and surfactant proteins (<1 mg/mL) in 0.9% sodium chloride solution (Goerke, 1998). MICs of daptomycin were determined in CAMHB with the Ca^2+ content adjusted to 50 mg/L.

[3] = tested on: common Gram-positive and Gram-negative respiratory bacteria; test: Pulmonary surfactant interaction, overall effect on MIC and MICRZ; assay type: cell-based; settings: 2.5% (v/v) BPS, all tested strains or isolates
Description: Antibacterial susceptibility testing was measured by JMI Labs (North Liberty, Iowa, USA). […] These clinical isolates were collected from US (n=4), Mexico (n=2), and Italy (n=1). Susceptibility testing was performed by broth microdilution in accordance with the Clinical and Laboratory and Standards Institute (CLSI) guidelines M07-A10 (2015) and the standard operating procedures at JMI laboratories. Minimum inhibitory concentrations (MICs) were based on CLSI criteria (2015). There are no published breakpoints for iclaprim. E. coli, K. pneumoniae, M. catarrhalis, E. faecalis, and S. aureus were tested in cation-adjusted Mueller-Hinton broth (CA-MHB). […]
Because bovine pulmonary surfactant can introduce cloudiness to the MIC testing media, antimicrobial growth inhibition was also evaluated using the colorimetric metabolic indicator resazurin (Camlab Ltd., Cambridge, UK). […] Growth inhibition was then evaluated as a visible color change from blue (no growth) to pink (robust growth) and recorded as a MICRZ value.
as §4
A new vial of bovine pulmonary surfactant (BPS; Survanta®; Abbott Laboratories, Columbus, Ohio) was utilized for each independent experiment. […] MICs of daptomycin were determined in CAMHB with the Ca^2+ content adjusted to 50 mg/L. […]

[4] = tested on: S. aureus; settings: worldwide surveillance studies; cited from earlier work
[5] = tested on: nosocomial pneumonia suspected or confirmed to be caused by Gram-positive pathogens; settings: cited from earlier work; for cure rate: intent-to-treat, test of cure visit

## COc1cc(Cc2cnc(N)nc2N)c2c(c1OC)OC(C1CC1)C=C2 (racemic) [Iclaprim]
[1]; 2.5% v/v BPS
  MICRZ, Resazurin: +BPS: 1 µg/mL
[1]; no BPS
  MICRZ, Resazurin: 1 µg/mL
[2]; H. influenzae ATCC 49247, 2.5% v/v BPS
  MICRZ, Resazurin: +BPS: 0.25 µg/mL
[2]; H. influenzae ATCC 49247, no BPS
  MICRZ, Resazurin: 0.25 µg/mL
[2]; H. influenzae Clinical Isolate 824704, 2.5% v/v BPS
  MICRZ, Resazurin: +BPS: 0.06 µg/mL
[2]; H. influenzae Clinical Isolate 824704, no BPS
  MICRZ, Resazurin: 0.06 µg/mL
[2]; ATCC49247, H. influenzae ATCC 49247, 2.5% v/v BPS, read-out: MIC, CLSI: +BPS
  MIC: 0.12 µg/mL (≈ 0.339 µM)
[2]; ATCC49247, H. influenzae ATCC 49247, no BPS, read-out: MIC, CLSI
  MIC: 0.12 µg/mL (≈ 0.339 µM)
[2]; H. influenzae Clinical Isolate 824704, 2.5% v/v BPS, read-out: MIC, CLSI: +BPS
  MIC: 0.06 µg/mL (≈ 0.169 µM)
[2]; H. influenzae Clinical Isolate 824704, no BPS, read-out: MIC, CLSI
  MIC: 0.06 µg/mL (≈ 0.169 µM)
[3]
  effect of BPS on the MIC and MICRZ values: minimal or no effect
[4]
  MIC90 of S. aureus: 0.12 µg/mL
[5]; iclaprim q12h
  death rate within 28 days of the start of treatment: 8.7%
[5]; iclaprim 0.8 mg/kg IV q12h
  cure rate: 73.9%
[5]; iclaprim 1.6 mg/kg IV q8h
  cure rate: 62.5%
